Source: patent US9115117B2, “Substituted piperidine compounds and their use as orexin receptor modulators” (JANSSEN PHARMACEUTICA NV, priority 2013, dated 2015)
Structures can show the parent of a compound that is named as a salt.

How the values were obtained:
human orexin 1 receptor = human orexin 1 receptor (Homo sapiens, UniProt O43613); test: Human orexin 1 receptor radioligand binding; settings: CHO cells stably expressing human orexin 1 receptor; apparent Ki; read-out: hOX1 Ki
Method: The in vitro affinity of the compounds of the invention for the rat/human orexin 1 and human orexin 2 receptors was determined by competitive radioligand binding using [^3H](1-(5-(2-fluoro-phenyl)-2-methyl-thiazol-4-yl)-1-((S)-2-(5-phenyl-(1,3,4)oxadiazol-2-ylmethyl)-pyrrolidin-1-yl)-methanone)(Langmead et al., 2004) and [^3H]EMPA (n-ethyl-2[96-methoxy-pyridin-3-yl)-(toluene-2-sulfonyl)-amino]-N-pyridin-3-ylmethyl acetamide), respectively (Langmead et al., 2004, British Journal of Pharmacology 141:340-346; Malherbe et al., 2004, British Journal of Pharmacology 156:1326-41).
Human Embryonic Kidney 293 cells (HEK293) stably expressing rat orexin 1 receptor (Genebank accession number NM_001525) or Chinese ovary cells (CHO) stably expressing human orexin 1 receptor (Genebank accession number NM_001526) were grown to confluency in DMEM (Hyclone, cat #SH30022), 10% FBS, 1× Pen/Strep, 1× sodium pyruvate, 10 mM HEPES, 600 µg/mL G418 and DMEM/F12 (Gibco, Cat #11039), 10% FBS, 1× Pen/Strep, 600 µg/mL G418 media, respectively on 150 cm^2 tissue culture plates, washed with 5 mM EDTA in PBS (HyClone Dulbecco's Phoshpate Buffered Saline 1× with Calcium and Magnesium, Cat #SH30264.01, hereafter referred to simply as PBS) and scraped into 50 ml tubes. After centrifugation (2K×G, 5 min at 4° C.), the supernatant was aspirated and the pellets frozen and stored at −80° C. Cells were resuspended in PBS in the presence of 1 tablet of protease inhibitor cocktail (Roche, Cat. #11836145001) per 50 mL. Each cell pellet from a 15 cm plate was resuspended in 10 mL, stored on ice, and homogenized for 45 sec prior to addition to the reactions. Competition binding experiments in 96 well polypropylene plates were performed using [^3H]-(1-(5-(2-fluoro-phenyl)-2-methyl-thiazol-4-yl)-1-((S)-2-(5-phenyl-(1,3,4)oxadiazol-2-ylmethyl)-pyrrolidin-1-yl)-methanone) (Moraveck Corporation, specific activity=35.3 Ci/mmol), diluted to a 10 nM concentration in PBS (4 nM final). […] The final concentration of DMSO in the reactions is equal to or less than 0.1%. Total and nonspecific binding was determined in the absence and presence of 10 μM almorexant. The total volume of each reaction is 200 μL (20 μL of diluted compounds, 80 μL of [3H]-(1-(5-(2-fluoro-phenyl)-2-methyl-thiazol-4-yl)-1-((S)-2-(5-phenyl-(1,3,4)oxadiazol-2-ylmethyl)-pyrrolidin-1-yl)-methanone) diluted in PBS and 100 μL of the cell suspension). Reactions were run for 60 min at room temperature and terminated by filtration through GF/C filter plates (PerkinElmer, Cat. #6005174) presoaked in 0.3% polyethylenimine using the cell harvester (PerkinElmer Filtermate). The plates were washed 3 times by aspirating 30 ml PBS through the plates. Plates were dried in 55° C. oven for 60 min, scintillation fluid was added, and the radioactivity was counted on a Topcount (Packard).

human orexin 2 receptor = human orexin 2 receptor (Homo sapiens (Human), UniProt O43614); test: Human orexin 2 receptor radioligand binding ([3H]-EMPA); settings: HEK293 stably expressing human orexin 2 receptor; [3H]-EMPA; apparent Ki; read-out: hOX2 Ki
Method: After centrifugation (2K×G, 5 min at 4° C.), the supernatant was aspirated and the pellets frozen and stored at −80° C. […] Each cell pellet from a 15 cm plate was resuspended in 10 mL, stored on ice, and homogenized for 45 sec just prior to addition to the reactions. Competition binding experiments in 96 well polypropylene plates were performed using [^3H]-EMPA (Moraveck Corporation, specific activity=29.6 Ci/mmol), diluted to a 5 nM concentration in PBS (2 nM final concentration). […] The final concentration of DMSO in the reactions is equal to or less than 0.1%. Total and nonspecific binding was determined in the absence and presence of […]. The total volume of each reaction is 200 μL (20 μL of diluted compounds, 80 μL of [^3H]-EMPA diluted in PBS and 100 μL of the cell suspension).
The plates were washed 3 times by aspirating 30 ml PBS through the plates. Plates were dried in 55° C. oven for 60 min, scintillation fluid was added, and the radioactivity was counted on a Topcount (Packard).

rat orexin 1 receptor = rat orexin 1 receptor (Rattus norvegicus, UniProt P56718); test: Rat orexin 1 receptor radioligand binding; settings: HEK293 cells stably expressing rat orexin 1 receptor; apparent Ki; read-out: rOX1 Ki
Method: After centrifugation (2K×G, 5 min at 4° C.), the supernatant was aspirated and the pellets frozen and stored at −80° C. […] Each cell pellet from a 15 cm plate was resuspended in 10 mL, stored on ice, and homogenized for 45 sec prior to addition to the reactions. Competition binding experiments in 96 well polypropylene plates were performed using [^3H]-(1-(5-(2-fluoro-phenyl)-2-methyl-thiazol-4-yl)-1-((S)-2-(5-phenyl-(1,3,4)oxadiazol-2-ylmethyl)-pyrrolidin-1-yl)-methanone) (Moraveck Corporation, specific activity=35.3 Ci/mmol), diluted to a 10 nM concentration in PBS (4 nM final). […] The final concentration of DMSO in the reactions is equal to or less than 0.1%. Total and nonspecific binding was determined in the absence and presence of 10 μM almorexant. The total volume of each reaction is 200 μL (20 μL of diluted compounds, 80 μL of [3H]-(1-(5-(2-fluoro-phenyl)-2-methyl-thiazol-4-yl)-1-((S)-2-(5-phenyl-(1,3,4)oxadiazol-2-ylmethyl)-pyrrolidin-1-yl)-methanone) diluted in PBS and 100 μL of the cell suspension). […] The plates were washed 3 times by aspirating 30 ml PBS through the plates. Plates were dried in 55° C. oven for 60 min, scintillation fluid was added, and the radioactivity was counted on a Topcount (Packard).

Sequence of human orexin 2 receptor (O43614 whole entry): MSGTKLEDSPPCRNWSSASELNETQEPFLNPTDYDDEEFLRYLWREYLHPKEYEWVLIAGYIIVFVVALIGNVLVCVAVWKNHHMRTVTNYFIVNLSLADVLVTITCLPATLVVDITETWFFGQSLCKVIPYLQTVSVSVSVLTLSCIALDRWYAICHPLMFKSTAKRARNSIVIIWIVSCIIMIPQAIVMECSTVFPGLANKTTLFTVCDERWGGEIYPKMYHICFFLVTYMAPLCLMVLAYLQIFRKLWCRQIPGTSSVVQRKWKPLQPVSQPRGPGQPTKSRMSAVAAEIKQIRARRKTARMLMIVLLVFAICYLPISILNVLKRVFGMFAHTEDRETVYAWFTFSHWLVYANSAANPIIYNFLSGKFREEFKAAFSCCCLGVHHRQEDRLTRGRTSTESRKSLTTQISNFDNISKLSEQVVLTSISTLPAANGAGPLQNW

Row | SMILES | Ki (human orexin 1 receptor) [nM] | Ki (human orexin 2 receptor) [nM] | Ki (rat orexin 1 receptor) [nM]
1 | Cc1cc(C)nc(N[C@@H]2CCCN(C(=O)c3ccc(F)cc3-n3nccn3)[C@H]2C)n1 (racemic) [Example 1, (±)-trans-(3-((4,6-dimethylpyrimidin-2-yl)amino)-2-methylpiperidin-1-yl)(4-fluoro-2-(2H-1,2,3-triazol-2-yl)phenyl)methanone] | 1030 | 290 | 
2 | Cc1cc(C)nc(N[C@@H]2CCCN(C(=O)c3c(F)cccc3-c3ncccn3)[C@H]2C)n1 (racemic) [Example 2, (±)-trans-(3-((4,6-dimethylpyrimidin-2-yl)amino)-2-methylpiperidin-1-yl)(2-fluoro-6-(pyrimidin-2-yl)phenyl)methanone] | 400 | 217 | 
3 | Cc1cc(C)nc(N[C@@H]2CCCN(C(=O)c3c(F)cccc3-n3nccn3)[C@H]2C)n1 (racemic) [Example 3, (±)-trans-(3-((4,6-dimethylpyrimidin-2-yl)amino)-2-methylpiperidin-1-yl)(2-fluoro-6-(2H-1,2,3-triazol-2-yl)phenyl)methanone] | 1060 | 260 | 
4 | Cc1cc(C)nc(N[C@@H]2CCCN(C(=O)c3ccccc3-n3nccn3)[C@H]2C)n1 (racemic) [Example 4, (±)-trans-(2-(2H-1,2,3-triazol-2-yl)phenyl)(3-((4,6-dimethylpyrimidin-2-yl)amino)-2-methylpiperidin-1-yl)methanone] | 78 | 40 | 
5 | Cc1cc(C)nc(N[C@@H]2CCCN(C(=O)c3cc(F)ccc3-n3nccn3)[C@H]2C)n1 (racemic) [Example 5, (±)-trans-(3-((4,6-dimethylpyrimidin-2-yl)amino)-2-methylpiperidin-1-yl)(5-fluoro-2-(2H-1,2,3-triazol-2-yl)phenyl)methanone] | 560 | 116 | 
6 | Cc1ccc(-n2nccn2)c(C(=O)N2CCC[C@@H](Nc3cc(C)nc(C(F)(F)F)n3)[C@@H]2C)c1 (racemic) [Example 8, (±)-trans-(5-methyl-2-(2H-1,2,3-triazol-2-yl)phenyl)(2-methyl-3-((6-methyl-2-(trifluoromethyl)pyrimidin-4-yl)amino)piperidin-1-yl)methanone] | 462 | 587 | 
7 | Cc1cc(N[C@@H]2CCCN(C(=O)c3cc(F)ccc3-c3ncccn3)[C@H]2C)nc(C(F)(F)F)n1 (racemic) [Example 9, (±)-trans-(5-fluoro-2-(pyrimidin-2-yl)phenyl)(2-methyl-3-((6-methyl-2-(trifluoromethyl)pyrimidin-4-yl)amino)piperidin-1-yl)methanone] | 6710 | 2050 | 
8 | C[C@H]1[C@H](Nc2nccc(C(F)(F)F)n2)CCCN1C(=O)c1c(F)cccc1-n1nccn1 (racemic) [Example 10, (±)-trans-(2-fluoro-6-(2H-1,2,3-triazol-2-yl)phenyl)(2-methyl-3-((4-(trifluoromethyl)pyrimidin-2-yl)amino)piperidin-1-yl)methanone] | 315 | 144 | 
9 | Cc1ccc(C(=O)N2CCC[C@@H](Nc3nccc(C(F)(F)F)n3)[C@@H]2C)c(-n2ccnn2)n1 (racemic) [Example 11, (±)-trans-(6-methyl-2-(1H-1,2,3-triazol-1-yl)pyridin-3-yl)(2-methyl-3-((4-(trifluoromethyl)pyrimidin-2-yl)amino)piperidin-1-yl)methanone] | 9000 |  | 
10 | Cc1ccc(C(=O)N2CCC[C@@H](Nc3ccc(C(F)(F)F)cn3)[C@@H]2C)c(-n2nccn2)c1 (racemic) [Example 13, (±)-trans-(4-methyl-2-(2H-1,2,3-triazol-2-yl)phenyl)(2-methyl-3-((5-(trifluoromethyl)pyridin-2-yl)amino)piperidin-1-yl)methanone] | 9 | 920 | 15
11 | C[C@H]1[C@H](Nc2ccc(C(F)(F)F)cn2)CCCN1C(=O)c1cc(Cl)ccc1-n1nccn1 (racemic) [Example 17, (±)-trans-(5-chloro-2-(2H-1,2,3-triazol-2-yl)phenyl)(2-methyl-3-((5-(trifluoromethyl)pyridin-2-yl)amino)piperidin-1-yl)methanone] | 8 | 221 | 11
12 | COc1ccc(-n2nccn2)c(C(=O)N2CCC[C@@H](Nc3ccc(C(F)(F)F)cn3)[C@@H]2C)c1 (racemic) [Example 19, (±)-trans-(5-methoxy-2-(2H-1,2,3-triazol-2-yl)phenyl)(2-methyl-3-((5-(trifluoromethyl)pyridin-2-yl)amino)piperidin-1-yl)methanone] | 10 | 238 | 10
13 | Cc1ccc(-c2ncccn2)c(C(=O)N2CCC[C@@H](Nc3ccc(C(F)(F)F)cn3)[C@@H]2C)n1 (racemic) [Example 23, (±)-trans-(2-methyl-3-((5-(trifluoromethyl)pyridin-2-yl)amino)piperidin-1-yl)(6-methyl-3-(pyrimidin-2-yl)pyridin-2-yl)methanone hydrochloride] | 23 | 208 | 
14 | C[C@H]1[C@H](Nc2ncc(Cl)cn2)CCCN1C(=O)c1ccccc1-n1nccn1 (racemic) [Example 30, (±)-trans-(2-(2H-1,2,3-triazol-2-yl)phenyl)(3-((5-chloropyrimidin-2-yl)amino)-2-methylpiperidin-1-yl)methanone] | 54 |  | 55
15 | C[C@H]1[C@H](Nc2ncc(C(F)(F)F)cn2)CCCN1C(=O)c1ccccc1-n1nccn1 (racemic) [Example 35, (±)-trans-(2-(2H-1,2,3-triazol-2-yl)phenyl)(2-methyl-3-((5-(trifluoromethyl)pyrimidin-2-yl)amino)piperidin-1-yl)methanone] | 29 |  | 
16 | Cc1ccc(N[C@@H]2CCCN(C(=O)c3ccccc3-n3nccn3)[C@H]2C)nc1 (racemic) [Example 37, (±)-trans-(2-(2H-1,2,3-triazol-2-yl)phenyl)(2-methyl-3-((5-methylpyridin-2-yl)amino)piperidin-1-yl)methanone] | 71 |  | 76
